# From PubChem BioAssay AID2060600 (Molecular Pharmacology Branch, DTP, NCI, 2025)
# System: 996289-038-R-J1-PDC complex spheroid viability
# Test: Anticancer human tumor 996289-038-R-J1-PDC patient-derived colon adenocarcinoma cell line growth inhibition [CLK]
# Conditions: for IC50: curve of first compound; for viability, T/C: stronger effect = lower value
# Text: A high-throughput screen of multi-cell type tumor spheroids was designed to identify active combinations of […] and targeted small molecules. Complex spheroids include a stromal component modeled by human endothelial cells (HUVEC) and fibroblasts modeled by human mesenchymal stem cells (MSCs). The concentration ranges selected for each drug and investigational agent were based upon clinically achievable concentrations if the clinical Cmax of the agent was known.
# Compounds. The drugs and investigational agents: cirtuvivint (SM08502; NSC835563), CC-671 (NSC850746), vemurafenib (NSC761431), tapotoclax (NSC804041), sotorasib (NSC818433), adagrasib (NSC831453), MRTX-1133 (NSC836407), BAY2416964 (NSC825713), copanlisib (NSC816437), inavolisib (NSC800729), abemaciclib (NSC768073), osimertinib (NSC779217), entinostat (NSC756642), eltanexor (KPT-8602, NSC794443), venetoclax (NSC766270), ceralasertib (NSC777638), bortezomib (NSC756655), olaparib (NSC753686), talazoparib (NSC767125), alisertib (NSC759677), peposertib (NSC802822), gemcitabine (NSC613327), 5-fluorouracil (NSC19893), SN-38 (NSC673596), oxaliplatin (NSC266046), paclitaxel (NSC125973), and doxorubicin (NSC123127), were obtained from the National Cancer Institute (NCI) Developmental Therapeutics Program Chemical Repository. The FDA-approved anticancer drug set is available from the Developmental Therapeutics Program at https://dtp.cancer.gov/organization/dscb/obtaining/available plates.htm. […] The stock solutions were prepared in dimethyl sulfoxide (DMSO, Sigma-Aldrich, St. Louis, MO, cat. D2650), except for the platinum complexes which were prepared in saline (Quality Biological, Gaithersburg, MD, cat. 114-055-101), at 800-fold the tested concentration and stored at -70 degrees C prior to their use. All drugs and investigational agents were tested over a range starting from a high concentration at or near the clinical Cmax and decreasing in half-log increments. If the clinical Cmax for an agent had not been determined, the highest concentration tested was 10 microM.
# Cell Culture. All cells were maintained in an incubator at 37 degrees C and 5% CO2 with 95% humidity. The PDC lines were cultured according to standard operating procedures established by the NCI PDMR. Briefly, all PDCs were thawed and cultured in Matrigel-coated flasks prepared with a working solution of 1X Ham's F-12 nutrient mix, without supplementation (Invitrogen, Waltham, MA, cat. 11765054), 100 U/mL penicillin-streptomycin (Invitrogen, cat. 15140122), and 2.5% Matrigel (Corning Inc., Corning, NY, cat. 354248) for the first three passages. The 947758-054-R-J2-PDC line was cultured in 6B/Colon 1A media, which includes advanced DMEM/F-12 (Thermo Fisher Scientific, cat. 12634028), 10 mM HEPES (Thermo Fisher Scientific, cat. 15630080), 1X GlutaMAX supplement (Thermo Fisher Scientific, cat. 35050061), 0.1 mg/mL primocin (InvivoGen, cat. ant-pm-2), 10% defined fetal bovine serum, heat inactivated (HyClone Laboratories Inc., cat. SH30070.03HI), 1.25 mM N-Acetyl-L-cysteine (Sigma-Aldrich, cat. A9165), 10 mM nicotinamide (Sigma-Aldrich, cat. N0636), 1X B-27 supplement (Thermo Fisher Scientific, cat. 17504044), 1X N-2 supplement (Thermo Fisher Scientific, cat. 17502048), and 10 microM Y-27632 dihydrochloride (Tocris Bioscience, cat. 1254). The 876862-298-R-J1-PDC was cultured in 6E media, which includes all 6B/Colon 1A media components plus 50% L-WRN conditioned media (ATCC, cat. CRL-3276), 50 ng/mL recombinant human EGF recombinant protein (hEGF; Thermo Fisher Scientific, cat. PHG0311), 10 ng/mL recombinant human fibroblast growth factor 10 (hGFG-10; PeproTech, cat. 100-26), 1 ng/mL recombinant human fibroblast growth factor 2 (hFGF-2; PeproTech, cat. 100-18B), and 1 µM prostaglandin E2 (PGE2; Tocris, cat. 2296). The 227483-062-R1-J1-PDC line was cultured in Panc media, containing all 6E components except hFGF-2, with the addition of 500 nM SB-431542 (Selleckchem, cat. S1067) and 10 nM gastrin (Tocris, cat. 3006). […]
# [1] = second compound 0.0316 µM, first compound 0.0316 µM
# [2] = second compound 0.0316 µM, first compound 0.1 µM
# [3] = second compound 0.0316 µM, first compound 0.316 µM
# [4] = second compound 0.0316 µM, first compound 1 µM
# [5] = second compound 0.0316 µM, first compound 3.16 µM
# [6] = second compound 0.0316 µM, first compound 10 µM
# [7] = second compound 0.1 µM, first compound 0.0316 µM
# [8] = second compound 0.1 µM, first compound 0.1 µM
# [9] = second compound 0.1 µM, first compound 0.316 µM
# [10] = second compound 0.1 µM, first compound 1 µM
# [11] = second compound 0.1 µM, first compound 3.16 µM
# [12] = second compound 0.1 µM, first compound 10 µM
# [13] = second compound 0.316 µM, first compound 0.0316 µM
# [14] = second compound 0.316 µM, first compound 0.1 µM
# [15] = second compound 0.316 µM, first compound 0.316 µM
# [16] = second compound 0.316 µM, first compound 1 µM
# [17] = second compound 0.316 µM, first compound 3.16 µM
# [18] = second compound 0.316 µM, first compound 10 µM
# [19] = second compound 1 µM, first compound 0.0316 µM
# [20] = second compound 1 µM, first compound 0.1 µM
# [21] = second compound 1 µM, first compound 0.316 µM
# [22] = second compound 1 µM, first compound 1 µM
# [23] = second compound 1 µM, first compound 3.16 µM
# [24] = second compound 1 µM, first compound 10 µM
# [25] = second compound 3.16 µM, first compound 0.0316 µM
# [26] = second compound 3.16 µM, first compound 0.1 µM
# [27] = second compound 3.16 µM, first compound 0.316 µM
# [28] = second compound 3.16 µM, first compound 1 µM
# [29] = second compound 3.16 µM, first compound 3.16 µM
# [30] = second compound 3.16 µM, first compound 10 µM
# [31] = second compound 10 µM, first compound 0.0316 µM
# [32] = second compound 10 µM, first compound 0.1 µM
# [33] = second compound 10 µM, first compound 0.316 µM
# [34] = second compound 10 µM, first compound 1 µM
# [35] = second compound 10 µM, first compound 3.16 µM
# [36] = second compound 10 µM, first compound 10 µM
# 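Also: spheroids exposed to the agents for 7 days before readout.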
compound,measurement,setting,value
C#Cc1c(F)ccc2cc(O)cc(-c3ncc4c(N5CC6CCC(C5)N6)nc(OCC56CCCN5CC(F)C6)nc4c3F)c12 (stereo unspecified) + CN1CCN(c2cc(C(=O)Nc3cc4cc(-c5cnn(C)c5)ccc4cn3)ccn2)CC1,IC50,second compound 0.0316 µM,965 nM
same,IC50,second compound 0.1 µM,589 nM
same,IC50,second compound 0.316 µM,92.3 nM
same,IC50,second compound 1 µM,< 31.6 nM
same,IC50,second compound 3.16 µM,< 31.6 nM
same,IC50,second compound 10 µM,< 31.6 nM
same,"viability, T/C",[1],102%
same,"viability, T/C",[2],92.2%
same,"viability, T/C",[3],64.3%
same,"viability, T/C",[4],52.9%
same,"viability, T/C",[5],34.8%
same,"viability, T/C",[6],28.4%
same,"viability, T/C",[7],85.5%
same,"viability, T/C",[8],71.2%
same,"viability, T/C",[9],58.1%
same,"viability, T/C",[10],45%
same,"viability, T/C",[11],28.6%
same,"viability, T/C",[12],22.2%
same,"viability, T/C",[13],58.7%
same,"viability, T/C",[14],50.2%
same,"viability, T/C",[15],35.9%
same,"viability, T/C",[16],26.7%
same,"viability, T/C",[17],20.7%
same,"viability, T/C",[18],16.6%
same,"viability, T/C",[19],4.83%
same,"viability, T/C",[20],4.1%
same,"viability, T/C",[21],3.5%
same,"viability, T/C",[22],2.81%
same,"viability, T/C",[23],2.14%
same,"viability, T/C",[24],2.96%
same,"viability, T/C",[25],1.47%
same,"viability, T/C",[26],1.31%
same,"viability, T/C",[27],1.59%
same,"viability, T/C",[28],0.95%
same,"viability, T/C",[29],0.67%
same,"viability, T/C",[30],0.45%
same,"viability, T/C",[31],0.72%
same,"viability, T/C",[32],0.61%
same,"viability, T/C",[33],1.23%
same,"viability, T/C",[34],0.99%
same,"viability, T/C",[35],0.36%
same,"viability, T/C",[36],0.65%
C=C(F)C(=O)N1CCN(c2nc(OCC3CCCN3C)nc3c2CCN(c2cccc4cccc(Cl)c24)C3)CC1CC#N (stereo unspecified) + CN1CCN(c2cc(C(=O)Nc3cc4cc(-c5cnn(C)c5)ccc4cn3)ccn2)CC1,IC50,second compound 0.0316 µM,4600 nM
same,IC50,second compound 0.1 µM,4410 nM
same,IC50,second compound 0.316 µM,2880 nM
same,IC50,second compound 1 µM,< 31.6 nM
same,IC50,second compound 3.16 µM,< 31.6 nM
same,IC50,second compound 10 µM,< 31.6 nM
same,"viability, T/C",[1],98.2%
same,"viability, T/C",[2],119%
same,"viability, T/C",[3],97.9%
same,"viability, T/C",[4],104%
same,"viability, T/C",[5],73.4%
same,"viability, T/C",[6],1.4%
same,"viability, T/C",[7],97.1%
same,"viability, T/C",[8],97.5%
same,"viability, T/C",[9],101%
same,"viability, T/C",[10],95.5%
same,"viability, T/C",[11],70.1%
same,"viability, T/C",[12],0.64%
same,"viability, T/C",[13],66.5%
same,"viability, T/C",[14],79.6%
same,"viability, T/C",[15],70.9%
same,"viability, T/C",[16],64.8%
same,"viability, T/C",[17],48.9%
same,"viability, T/C",[18],0.51%
same,"viability, T/C",[19],6.67%
same,"viability, T/C",[20],6.95%
same,"viability, T/C",[21],6.76%
same,"viability, T/C",[22],6.89%
same,"viability, T/C",[23],1.53%
same,"viability, T/C",[24],0.54%
same,"viability, T/C",[25],0.79%
same,"viability, T/C",[26],0.78%
same,"viability, T/C",[27],1.18%
same,"viability, T/C",[28],0.87%
same,"viability, T/C",[29],1.8%
same,"viability, T/C",[30],0.29%
same,"viability, T/C",[31],0.4%
same,"viability, T/C",[32],0.7%
same,"viability, T/C",[33],1.4%
same,"viability, T/C",[34],0.36%
same,"viability, T/C",[35],0.43%
same,"viability, T/C",[36],0.8%
CC(CO)NC(=O)c1cc(-c2ccc(Cl)cc2)nn(-c2cnn(C)c2)c1=O (stereo unspecified) + CN1CCN(c2cc(C(=O)Nc3cc4cc(-c5cnn(C)c5)ccc4cn3)ccn2)CC1,IC50,second compound 0.0316 µM,> 10000 nM
same,IC50,second compound 0.1 µM,> 10000 nM
same,IC50,second compound 0.316 µM,8010 nM
same,IC50,second compound 1 µM,< 31.6 nM
same,IC50,second compound 3.16 µM,< 31.6 nM
same,IC50,second compound 10 µM,< 31.6 nM
same,"viability, T/C",[1],105%
same,"viability, T/C",[2],96.2%
same,"viability, T/C",[3],95.3%
same,"viability, T/C",[4],107%
same,"viability, T/C",[5],102%
same,"viability, T/C",[6],82.3%
same,"viability, T/C",[7],107%
same,"viability, T/C",[8],104%
same,"viability, T/C",[9],89.8%
same,"viability, T/C",[10],83.9%
same,"viability, T/C",[11],84.9%
same,"viability, T/C",[12],66.9%
same,"viability, T/C",[13],75%
same,"viability, T/C",[14],70.2%
same,"viability, T/C",[15],67.3%
same,"viability, T/C",[16],68.4%
same,"viability, T/C",[17],69.2%
same,"viability, T/C",[18],45.5%
same,"viability, T/C",[19],8.41%
same,"viability, T/C",[20],6.34%
same,"viability, T/C",[21],6.26%
same,"viability, T/C",[22],6.91%
same,"viability, T/C",[23],6.32%
same,"viability, T/C",[24],4.74%
same,"viability, T/C",[25],1.59%
same,"viability, T/C",[26],0.78%
same,"viability, T/C",[27],2.09%
same,"viability, T/C",[28],2.22%
same,"viability, T/C",[29],0.69%
same,"viability, T/C",[30],1.38%
same,"viability, T/C",[31],1.12%
same,"viability, T/C",[32],0.98%
same,"viability, T/C",[33],0.62%
same,"viability, T/C",[34],0.94%
same,"viability, T/C",[35],0.67%
same,"viability, T/C",[36],0.38%
